According to patent publication US20190256499A1, “SUBSTITUTED QUINOXALINE DERIVATIVES AS INHIBITORS OF PFKFB” (priority 2016, published 2019):
Values after ≈ are worked out from the molar mass of the structure shown.

What was measured:
[1] = Kinetic solubility; type: physicochemical; conditions: phosphate buffer, pH 7.4, aqueous buffer, kinetic from dmso stock, phosphate buffer 20 mM pH 7.4, 2% DMSO, room temperature
Method: Kinetic solubility of compounds of the present invention were tested according the following procedure.
(a) Buffer Solution Phosphate Buffer 20 mM pH 7.4 is prepared using Sorensen Phosphate Buffer 0.2 M pH 7.4 (EMS) in a 1000 mL volumetric flask (b) 2% DMSO in Phosphate Buffer 20 mM pH 7.4 is prepared by using 1 mL Dimethylsulfoxide (Merck) and 49 ml Sorensen Phosphate Buffer 20 mM pH 7.4 (c) Acetonitrile/Methanole/Eluent A (1:1:2; v/v/v) is prepared by using 50 mL Acetonitrile (Merck), 50 mL Methanol (Merck) and 100 mL Eluent A (d) Eluent A is prepared by using 1 mL Formic Acid (Merck) and 999 mL Ultrapure water (e) Eluent B is prepared by using 1 mL Formic Acid (Merck) and 999 mL Acetonitrile (Merck) (f) Filtration plate: Millipore MultiScreen HTS HV (0.45 μm) 96 Well (Millipore)
98 μL buffer solution (a) is added into a well of a 96 well filtration plate (f). Then 2 μL of 10 mM test compound solution in DMSO (Remp tube) is added. The filtration plate is incubated at room temperature for 120 minutes while agitating at 250 rpm and centrifuged with the PP-Plate (g) as receiver plate below (2500 rpm, 3 min). The 50 μL of filtrate is taken from the receiver plate and mixed with 50 μL of 2% DMSO in buffer pH 7.4 solution (b) (dilution factor=2) in a HPLC Vial (i)+(j).
Standard is prepared by diluting 2 μL of the same 10 mM test compound solution (Remp tube) diluted with 198 μL Acetonitrile/Methanole/Eluent A (1:1:2; v/v/v) (c) to prepare a 100 μM standard solution in a HPLC Vial (i)+(j).
Column temperature: 37° C. Autosampler: room temperature (approx. 25° C.) Gradient programme: […]
Injection volume: 10 μL Wavelength: Suitable wavelength (maximum sensitivity) selected out of wavelength range of 190-400 nm using a DAD detector.
L [μg/mL]=(area sample*concentration standard*dilution factor sample)/(area standard*dilution factor standard)
S [mol/L]=[…] Calculation: […]

[2] = Microsomal stability (intrinsic clearance), human liver microsomes; type: in vitro ADME; parameters: microsomal CLint: dose or concentration left out as unconfirmed; conditions: human, liver microsomes, pH 7.4, human liver microsomes
Source text: A microsomal stability assay is used to measure in vitro clearance (Clint). The assay involves measuring the rate of disappearance of a compound due to its intrinsic attitude to be metabolized (“intrinsic” meaning that the disappearance is not affected by other properties like permeability, binding etc. that play a role when quantifying in vivo clearance). The microsomal stability (intrinsic clearance, Clint) and thus metabolic stability is generally given as μl/min/mg protein. It can be visualized as the volume of solution that 1 mg of microsomes is able to clear of the compound in one minute.
A Tecan Genesis workstation (RSP 150/8) was used for to perform the microsomal incubations. Analysis was carried out using a Waters ACQUITY UPLC system coupled to an ABSciex API3000 mass spectrometer. Data analysis was performed using Assay Explorer (Symyx).
Mobile phases: A=0.1% formic acid in water; B=acetonitrile
Flow rate: 0.750 mL/min; Detection: ESI, MRM; Injection: 10 μL; Column temperature: 50° C.
Potassium phosphate buffer: 0.05 M potassium phosphate buffer pH 7.4 containing 1 mM MgCl2 NADPH (nicotinamide adenine dinucleotide phosphate): 22.5 mg NADPH-Na4 in 1.8 ml potassium phosphate buffer Acetonitrile: 50 Vol % acetonitrile (1 volume acetonitrile, 1 volume water) DMSO: 20 Vol % DMSO in water Stock solution of 20 mg/ml human or mouse liver microsomes (protein)/ml in phosphate buffer Stock solution of 10 mM compound in 100% DMSO

SMILES | solubility kinetic at 120 min [1] [µM] | microsomal CLint [2] [µL/min/mg]
Cn1ccc2ccc(-c3cc(NC(c4cccnc4)c4ccc(=O)[nH]n4)cc4nccnc34)cc21 (single isomer, unassigned) [Example 2] | 61 (≈ 28 µg/mL) | 78
COc1ccc([C@@H](Nc2cc(-c3ccc4ccn(C)c4c3)c3nccnc3c2)c2cccnc2)nn1 (single isomer, unassigned) [Example 5] | 20 (≈ 9.47 µg/mL) | 264
Cn1cc([C@H](Nc2cc(-c3ccc4ccn(C)c4c3)c3nccnc3c2)c2cnnn2C)cn1 (single isomer, unassigned) [Example 8] | 110 (≈ 49.4 µg/mL) | 50
Cn1cc([C@H](Nc2cc(-c3ccc4ccn(C)c4c3)c3nccnc3c2)c2cncn2C)cn1 (single isomer, unassigned) [Example 11] | 100 (≈ 44.9 µg/mL) | 130
COc1ccc([C@@H](Nc2cc(-c3ccc4ccn(C)c4c3)c3nccnc3c2)c2cccnc2)cn1 [Comparative Example 4, [(S)-(6-methoxy-pyridin-3-yl)-pyridin-3-yl-methyl]-[8-(1-methyl-1H-indol-6-yl)-quinoxalin-6-yl]-amine, reference compound] | 3.7 (≈ 1.75 µg/mL) | 214
